In brackets after ≈: the same amount, converted by molar mass. Like-named read-outs stand apart in the source and are kept apart here.

The results in this text go back to patent publication US10487093B2, “Heterocyclic compounds, in particular 2-oxo-4,4,5,5,6,6,7,7-octahydrobenzoxazole derivatives, and their use as antibacterial compounds” (priority 2016, dated 2019).

In assay [1] the test system is Acinetobacter baumannii NCTC 13420. In words: MIC, broth microdilution (CLSI) versus planktonic bacteria. In kind it is cell-based. The settings on record: Acinetobacter baumannii NCTC 13420, 16-20 h, mode of three independent experiments; for MIC: NCTC13420, read-out: MIC, Ab NCTC 13420. A general note: Dilution methods test growth across graded concentrations, often in twofold steps.

For assay [2], the system named is Acinetobacter baumannii ATCC 19606. The description is as above. Format: cell-based. The settings on record: Acinetobacter baumannii ATCC 19606, 16-20 h, mode of three independent experiments; for MIC: ATCC19606, read-out: MIC, Ab ATCC 19606.
For assay [3], the system named is Enterobacter cloacae NCTC 13406. The description is as above. Format: cell-based. As to conditions: Enterobacter cloacae NCTC 13406, 16-20 h, mode of three independent experiments; for MIC: NCTC13406, read-out: MIC, Ecl NCTC 13406.
In assay [4] the test system is Escherichia coli ATCC 25922. Described as above. As to conditions: Escherichia coli ATCC 25922, 16-20 h, mode of three independent experiments; for MIC: ATCC25922, read-out: MIC, Ec ATCC 25922. Format: cell-based.
The subject of the next assay is E. coli ATCC BAA-2452. Described as above. In kind it is cell-based. The settings on record: Escherichia coli ATCC BAA-2452, 16-20 h, mode of three independent experiments; for MIC: read-out: MIC, Ec ATCC BAA 2452.
The next assay has as its system E. coli NCTC 13476. The description is as above. As to conditions: Escherichia coli NCTC 13476, 16-20 h, mode of three independent experiments; for MIC: NCTC13476, read-out: MIC, Ec NCTC 13476. Format: cell-based.
In another assay the test system is E. coli MG1655. The assay is described as above. In kind it is cell-based, Escherichia coli. As to conditions: for MIC, Ec MG1655 WT: Escherichia coli MG1655 WT, 16-20 h, mode of three independent experiments; for MIC: Escherichia coli, MG1655, read-out: MIC, Ec MG1655 WT.
For assay [5], the system named is Haemophilus influenzae ATCC 49247. The description is as above. Format: cell-based. As to conditions: Haemophilus influenzae ATCC 49247, 16-20 h, mode of three independent experiments; for MIC: ATCC49247, read-out: MIC, Hi ATCC 49247.
The test system of assay [6] is Pseudomonas aeruginosa ATCC 27853. The description is as above. In kind it is cell-based. The settings on record: Pseudomonas aeruginosa ATCC 27853, 16-20 h, mode of three independent experiments; for MIC: ATCC27853, read-out: MIC, Pa ATCC 27853.
Assay [7] concerns Staphylococcus aureus ATCC 29213. The description is as above. In kind it is cell-based. As to conditions: Staphylococcus aureus ATCC 29213, 16-20 h, mode of three independent experiments; for MIC: ATCC29213, read-out: MIC, Sa ATCC 29213.
Assay [8] deals with Streptococcus pneumoniae ATCC 49619. The assay is described as above. Format: cell-based. As to conditions: Streptococcus pneumoniae ATCC 49619, 16-20 h, mode of three independent experiments; for MIC: ATCC49619, read-out: MIC, Sp ATCC 49619.
The test system of another assay is E. coli MG1655 S83L. In kind it is cell-based, Escherichia coli.
A further assay deals with E. coli MG1655 D87G. In kind it is cell-based, Escherichia coli.
The test system of assay [9] is human hepatic cell line (HepG2 ATCC HB-8065). The assay is described as follows: Human cell viability assay (CellTiter-Glo). As to conditions: for IC50 (μg/mL) HepG2: HepG2 cell viability, 24 h, CellTiter-Glo; for IC50: Homo sapiens, HepG2, 24 h, read-out: IC50 (μg/mL) HepG2.
Where [10] appears, read: compared to the isogenic parent strain E. coli MG1655, S83L mutation on DNA gyrase subunit GyrA.
Setting [11] is: compared to the isogenic parent strain E. coli MG1655, D87G mutation on DNA gyrase subunit GyrA.

Regarding “1-[(2S)-3-{[(3aR,6R,7aR)-2-oxo-3-{3-oxo-2H,3H,4H-pyrido[3,2-b][1,4]oxazin-6-yl}-octahydro-1,3-benzoxazol-6-yl]amino}-2-hydroxypropyl]-7-fluoro-1,2-dihydroquinoxalin-2-one & 1-[(2R)-3-{[(3aR,6R,7aR)-2-oxo-3-{3-oxo-2H,3H,4H-pyrido[3,2-b][1,4]oxazin-6-yl}-octahydro-1,3-benzoxazol-6-yl]amino}-2-hydroxypropyl]-7-fluoro-1,2-dihydroquinoxalin-2-one [Compound 94]”, the “MIC, Ab NCTC 13420” value in [1] is recorded as “B (a MIC of from 1 to 10 is assigned the letter B)”. Moreover, the “MIC, Ab ATCC 19606” value in assay [2] is given as “B (a MIC of from 1 to 10 is assigned the letter B)”. In addition, in [3], the “MIC, Ecl NCTC 13406” value was “B (a MIC of from 1 to 10 is assigned the letter B)”. For the same molecule, in [4], the “MIC, Ec ATCC 25922” value is recorded as “A (an MIC (in μg/mL) of less or equal to 1 is assigned the letter A)”. The “MIC, Ec ATCC BAA 2452” value against E. coli ATCC BAA-2452 is “A (an MIC (in μg/mL) of less or equal to 1 is assigned the letter A)”. The “MIC, Ec NCTC 13476” value against E. coli NCTC 13476 is reported as “A (an MIC (in μg/mL) of less or equal to 1 is assigned the letter A)”. In addition, the “MIC, Ec MG1655 WT” value against E. coli MG1655 is given as “A (an MIC (in μg/mL) of less or equal to 1 is assigned the letter A)”. The “MIC, Hi ATCC 49247” value in [5] is “A (an MIC (in μg/mL) of less or equal to 1 is assigned the letter A)”. In addition, the “MIC, Pa ATCC 27853” value in [6] is on record as “B (a MIC of from 1 to 10 is assigned the letter B)”. Further, the “MIC, Sa ATCC 29213” value in assay [7] is “A (an MIC (in μg/mL) of less or equal to 1 is assigned the letter A)”. Moreover, in assay [8], the “MIC, Sp ATCC 49619” value is reported as “A (an MIC (in μg/mL) of less or equal to 1 is assigned the letter A)”. Besides, the “Fold increase in MIC, E. coli MG1655 S83L” value in the assay with E. coli MG1655 S83L stood at 1 fold. In addition, the “Fold increase in MIC, E. coli MG1655 D87G” value in the assay on E. coli MG1655 D87G was 2 fold. For the same molecule, in assay [9], the “IC50 (μg/mL) HepG2” value is “A (an IC50 of over 100 is assigned the letter A)”.

As to “1-[(2S)-3-{[(3aS,6S,7aS)-2-oxo-3-{3-oxo-2H,3H,4H-pyrido[3,2-b][1,4]oxazin-6-yl}-octahydro-1,3-benzoxazol-6-yl]amino}-2-hydroxypropyl]-7-fluoro-1,2-dihydroquinoxalin-2-one & 1-[(2R)-3-{[(3aS,6S,7aS)-2-oxo-3-{3-oxo-2H,3H,4H-pyrido[3,2-b][1,4]oxazin-6-yl}-octahydro-1,3-benzoxazol-6-yl]amino}-2-hydroxypropyl]-7-fluoro-1,2-dihydroquinoxalin-2-one [Compound 95]”, the “MIC, Ab NCTC 13420” value in [1] is on record as “A (an MIC (in μg/mL) of less or equal to 1 is assigned the letter A)”. The “MIC, Ab ATCC 19606” value in assay [2] is given as “B (a MIC of from 1 to 10 is assigned the letter B)”. In addition, the “MIC, Ecl NCTC 13406” value in [3] is listed as “B (a MIC of from 1 to 10 is assigned the letter B)”. For the same molecule, in assay [4], the “MIC, Ec ATCC 25922” value is listed as “A (an MIC (in μg/mL) of less or equal to 1 is assigned the letter A)”. Moreover, in the assay with E. coli ATCC BAA-2452, the “MIC, Ec ATCC BAA 2452” value was “A (an MIC (in μg/mL) of less or equal to 1 is assigned the letter A)”. In the assay on E. coli NCTC 13476, the “MIC, Ec NCTC 13476” value is “A (an MIC (in μg/mL) of less or equal to 1 is assigned the letter A)”. In the assay with E. coli MG1655, the “MIC, Ec MG1655 WT” value is listed as “A (an MIC (in μg/mL) of less or equal to 1 is assigned the letter A)”. In addition, the “MIC, Hi ATCC 49247” value in assay [5] is given as “A (an MIC (in μg/mL) of less or equal to 1 is assigned the letter A)”. Also, in assay [6], the “MIC, Pa ATCC 27853” value is reported as “B (a MIC of from 1 to 10 is assigned the letter B)”. In addition, in assay [7], the “MIC, Sa ATCC 29213” value is reported as “A (an MIC (in μg/mL) of less or equal to 1 is assigned the letter A)”. In addition, in [8], the “MIC, Sp ATCC 49619” value is reported as “A (an MIC (in μg/mL) of less or equal to 1 is assigned the letter A)”. Also, in the assay on E. coli MG1655 S83L, the “Fold increase in MIC, E. coli MG1655 S83L” value came to 0.5 fold. Moreover, the “Fold increase in MIC, E. coli MG1655 D87G” value with E. coli MG1655 D87G was determined as 1 fold. Also, the “IC50 (μg/mL) HepG2” value in assay [9] is recorded as “A (an IC50 of over 100 is assigned the letter A)”.

With `COc1ccc2ncc(=O)n(CCN[C@H]3CCC4C(C3)OC(=O)N4c3ccc4c(n3)NC(=O)CO4)c2n1` (stereo in doubt) [Compound 45, (3aS,6S,7aS)-6-[(2-{6-methoxy-3-oxo-3H,4H-pyrido[2,3-b]pyrazin-4-yl}ethyl)amino]-3-{3-oxo-2H,3H,4H-pyrido[3,2-b][1,4]oxazin-6-yl}-octahydro-1,3-benzoxazol-2-one], the MIC (in assay [1]; in assay [2]; in assay [3]; in assay [4]; in the assay on E. coli ATCC BAA-2452; in the assay on E. coli NCTC 13476) was less than 1 µg/mL each time. The MIC was less than 1 µg/mL with E. coli MG1655; less than 1 µg/mL in [5]; 1 to 10 µg/mL (≈ 1.97 to 19.7 µM) in assay [6]; less than 1 µg/mL in assay [7]; less than 1 µg/mL in assay [8]. For the same molecule, the “Fold increase in MIC, E. coli MG1655 S83L” value in the assay on E. coli MG1655 S83L (setting [10]) came to 2 fold. Further, in the assay with E. coli MG1655 D87G (setting [11]), the “Fold increase in MIC, E. coli MG1655 D87G” value was 1 fold. The IC50 in assay [9] lay in the range of 10 to 100 µg/mL (≈ 19.7 to 197 µM).

Regarding `COc1ccc2ccc(=O)n(CCN(CCO)[C@H]3CC[C@H]4[C@@H](C3)OC(=O)N4c3ccc4c(n3)NC(=O)CO4)c2n1` [Compound 7, 1-(2-{[(3aS,6S,7aR)-2-oxo-3-{3-oxo-2H,3H,4H-pyrido[3,2-b][1,4]oxazin-6-yl}-octahydro-1,3-benzoxazol-6-yl](2-hydroxyethyl)amino}ethyl)-7-methoxy-1,2-dihydro-1,8-naphthyridin-2-one], the MIC was less than 1 µg/mL in assay [1]; 1 to 10 µg/mL (≈ 1.82 to 18.2 µM) in assay [2]; 1 to 10 µg/mL (≈ 1.82 to 18.2 µM) in assay [3]; less than 1 µg/mL in [4]; 1 to 10 µg/mL (≈ 1.82 to 18.2 µM) in the assay on E. coli ATCC BAA-2452; 1 to 10 µg/mL (≈ 1.82 to 18.2 µM) in the assay with E. coli NCTC 13476. Besides, the MIC in the assay with E. coli MG1655 is less than 1 µg/mL; in [5] it was 1 to 10 µg/mL (≈ 1.82 to 18.2 µM); in [6], 1 to 10 µg/mL (≈ 1.82 to 18.2 µM); in assay [7], less than 1 µg/mL; in assay [8] it was less than 1 µg/mL. Also, in the assay on E. coli MG1655 S83L (setting [10]), the “Fold increase in MIC, E. coli MG1655 S83L” value was found to be 1 fold. The “Fold increase in MIC, E. coli MG1655 D87G” value in the assay with E. coli MG1655 D87G (setting [11]) was found to be 1 fold. In addition, the IC50 in assay [9] is greater than 100 µg/mL.

For `N#Cc1ccc2ccc(=O)n(CCN[C@H]3CC[C@H]4[C@@H](C3)OC(=O)N4c3ccc4c(n3)NC(=O)CO4)c2c1` [Compound 14, 1-(2-{[(3aS,6S,7aR)-2-oxo-3-{3-oxo-2H,3H,4H-pyrido[3,2-b][1,4]oxazin-6-yl}-octahydro-1,3-benzoxazol-6-yl]amino}ethyl)-2-oxo-1,2-dihydroquinoline-7-carbonitrile], the MIC (in assay [1]; in [2]; in assay [3]; in assay [4]; with E. coli ATCC BAA-2452; with E. coli NCTC 13476) was less than 1 µg/mL throughout. Besides, the MIC (in the assay on E. coli MG1655; in [5]; in [6]; in assay [7]; in assay [8]) was less than 1 µg/mL each time. In addition, the “Fold increase in MIC, E. coli MG1655 S83L” value in the assay on E. coli MG1655 S83L (setting [10]) came out at 2 fold. Further, the “Fold increase in MIC, E. coli MG1655 D87G” value in the assay on E. coli MG1655 D87G (setting [11]) turned out to be 2 fold. In addition, in assay [9], the IC50 is greater than 100 µg/mL.
